Measurements reported in article PMC8125234, “Cardiolipin Stabilizes and Increases Catalytic Efficiency of Carnitine Palmitoyltransferase II and Its Variants S113L, P50H, and Y479F” (International Journal of Molecular Sciences, 2021).
Residue numbers refer to the chain shown, from its start. Where two headings read alike, the source gives them in different places. Values belong to the compound of their own block, whether it stands above or below them.

Columns and labels:
Format in all cases: biochemical
[1] = target: T1, CPT II variant P50H (Homo sapiens, UniProt P23786, P50H); test: Determination of inhibition constant Ki for R-amino carnitine (DTNB enzyme activity assay); settings: 25 °C
T1 construct: made in house; host or cells: Escherichia coli BL21Gold DE
T1 sequence (P23786 26-658 P50H): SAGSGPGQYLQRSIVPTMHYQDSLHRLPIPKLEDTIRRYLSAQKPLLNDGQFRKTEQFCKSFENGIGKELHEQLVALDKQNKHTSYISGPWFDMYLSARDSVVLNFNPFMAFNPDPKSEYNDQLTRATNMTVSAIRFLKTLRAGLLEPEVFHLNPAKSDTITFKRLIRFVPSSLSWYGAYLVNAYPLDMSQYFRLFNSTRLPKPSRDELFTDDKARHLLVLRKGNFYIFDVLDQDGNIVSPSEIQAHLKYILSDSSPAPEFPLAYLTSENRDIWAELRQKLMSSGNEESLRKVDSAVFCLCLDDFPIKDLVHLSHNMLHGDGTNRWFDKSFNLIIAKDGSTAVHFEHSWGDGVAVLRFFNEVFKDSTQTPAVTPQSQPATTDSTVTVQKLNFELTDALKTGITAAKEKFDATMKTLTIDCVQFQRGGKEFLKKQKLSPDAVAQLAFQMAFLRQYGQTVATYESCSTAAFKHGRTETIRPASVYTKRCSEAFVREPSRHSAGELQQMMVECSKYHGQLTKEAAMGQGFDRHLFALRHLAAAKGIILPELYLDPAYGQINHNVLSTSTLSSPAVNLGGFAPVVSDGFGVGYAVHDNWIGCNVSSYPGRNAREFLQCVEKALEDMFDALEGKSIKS
Method: (§1) Before activity measurements, the storage buffer of the enzymes was replaced with assay buffer (50 mM KH2PO4, 120 mM KCl, 1 mM EDTA-Na4) using vivaspin turbo 4 tubes (Satorius Stedim biotech GmbH, Göttingen, Germany) at 4 °C. The pH of assay buffer was adjusted with KOH to 7.4. The storage buffer was diluted at least 1:500 in assay buffer. In addition, before each experimental set up, the protein samples were centrifuged at 16,000× g for 5 min at 4 °C to remove any micro-aggregates. After that, the protein concentration was determined using bicinchoninic acid (BCA) protein assay kit (Thermo Fisher Scientific GmbH, Berlin, Germany). The enzyme activity of recombinant CPT II was performed following Rufer et al. with modifications described elsewhere. […] After pre-conditioning the mixture to 25 °C for 2 min, the reaction was started by adding 15 nM of recombinant enzyme. The reverse reaction of CPT II was detected with the enzyme activity assay. CPT II catalyzed the transfer of fatty acid residue from Pal-CoA to L-carnitine with release of CoA and Pal-carnitine. The released CoA was then detected by the reaction of the free thiol group with DTNB, forming 5-mercapto-(2-nitrobenzoic acid). This compound has a molar extinction coefficient of 13,600 M^−1 cm^−1 at a wavelength of 410 nm, and its formation was followed spectroscopically. […] The slope of the progress curve was used to determine the reaction velocity.
(§2) The inhibition constant Ki for the competitive inhibitor R-amino carnitine was determined using various concentrations (R-AC, 0, 0.25 and 0.5 mM). A concentration series of L-carnitine in the enzyme assay was used (0–200 mM) while the concentration of Pal-CoA remained constant at 30 µM. Experiments were performed at least three times independently as double determination.
(§3) The values for Ki were calculated on the basis of the obtained KM values, the Michaelis–Menten constant of the inhibited reaction KMi and the inhibitor concentration using the following equation [45]:(3) KMi=(1+[I]/ Ki)KM (4) Ki=KM·[I]/KMi−KM

[2] = target: T2, CPT II variant Y479F (Homo sapiens, UniProt P23786, Y479F); test: as above; settings: 25 °C
T2 construct: made in house; host or cells: Escherichia coli BL21Gold DE
T2 sequence (P23786 26-658 Y479F): T1 sequence (P23786 26-658 P50H) with H25P, Y454F
Method: as §1, §2, §3

[3] = target: T3, CPT II WT (Homo sapiens, UniProt P23786); test: as above; settings: 25 °C
T3 construct: made in house; host or cells: Escherichia coli BL21Gold DE
T3 sequence (P23786 26-658): T1 sequence (P23786 26-658 P50H) with H25P
Method: as §1, §2, §3

[4] = target: T4, CPT II variant S113L (Homo sapiens, UniProt P23786, S113L); test: as above; settings: 25 °C
T4 construct: made in house; host or cells: Escherichia coli BL21Gold DE
T4 sequence (P23786 26-658 S113L): T1 sequence (P23786 26-658 P50H) with H25P, S88L
Method: as §1, §2, §3

[5] = target: T1, CPT II variant P50H; test: Determination of the kinetic parameters kcat and KM; settings: palmitoyl-CoA varied, 25 °C
Method: as §1
(§4) It is assumed that the reaction catalyzed by CPT II represents a ping-pong mechanism or compulsory order ternary-complex mechanism.
(§5) The kinetic parameters were determined by evaluating the obtained v/S characteristic according to the Michaelis–Menten Equation (1). The […] kcat was calculated using Equation (2):(1) v=Vmax∗[S]/KM+[S] (2) kcat=Vmax/cenzyme

[6] = target: T2, CPT II variant Y479F; test: as above; settings: palmitoyl-CoA varied, 25 °C
Method: as §1, §4, §5

[7] = target: T3, CPT II WT; test: as above; settings: palmitoyl-CoA varied, 25 °C
Method: as §1, §4, §5

[8] = target: T4, CPT II variant S113L; test: as above; settings: palmitoyl-CoA varied, 25 °C
Method: as §1, §4, §5

[9] = 0.25 mM CL, read-out: Inhibition Constant Ki in Presence of CL
[10] = absence of CL, read-out: Inhibition Constant Ki in Absence of CL

Compound: C[N+](C)(C)C[C@H](N)CC(=O)[O-] [R-amino carnitine, R-Aminocarnitine]
- Ki [1, 9]: 46 ± 6 µM
- Ki [1, 10]: 134 ± 11 µM
- Ki [2, 9]: 108 ± 39 µM
- Ki [2, 10]: 756 ± 62 µM
- Ki [3, 9]: 105 ± 2 µM
- Ki [3, 10]: 493 ± 4 µM
- Ki [4, 9]: 36 ± 16 µM
- Ki [4, 10]: 173 ± 20 µM

- Km ([5]; 0.25 mM CL): 6.7 ± 1.8 µM
- kcat ([5]; 0.25 mM CL): 138.2 ± 8.4 s⁻¹
- Km ([5]; absence of CL): 5.5 ± 1.4 µM
- kcat ([5]; absence of CL): 144.3 ± 18 s⁻¹
- Km ([6]; 0.25 mM CL): 6.7 ± 0.3 µM
- kcat ([6]; 0.25 mM CL): 144.8 ± 13 s⁻¹
- Km ([6]; absence of CL): 5.1 ± 2.3 µM
- kcat ([6]; absence of CL): 141.4 ± 1.7 s⁻¹
- Km ([7]; 0.25 mM CL): 6.7 ± 1.1 µM
- kcat ([7]; 0.25 mM CL): 145.3 ± 9.0 s⁻¹
- Km ([7]; absence of CL): 7.1 ± 1.1 µM
- kcat ([7]; absence of CL): 144.7 ± 3.1 s⁻¹
- Km ([8]; 0.25 mM CL): 12.3 ± 3 µM
- kcat ([8]; 0.25 mM CL): 145.8 ± 0.9 s⁻¹
- Km ([8]; absence of CL): 11 ± 3.6 µM
- kcat ([8]; absence of CL): 142.1 ± 25 s⁻¹
Compound: CCCCCCCCCCCCCCCC(=O)SCCNC(=O)CCNC(=O)[C@H](O)C(C)(C)COP(=O)(O)OP(=O)(O)OC[C@H]1O[C@@H](n2cnc3c(N)ncnc32)[C@H](O)[C@@H]1OP(=O)(O)O [palmitoyl-CoA, Palmitoyl-Coenzyme A]
